The assay concerns HUVEC. Put plainly: Antiangiogenic activity in HUVEC cells assessed as inhibition of hEGF-induced tubular formation at 1 ug/mL after 24 hrs relative to control. The class given is functional, Homo sapiens. On the set-up: scale not given: the % may be the effect or the level left.

On to `O=C1N/C=C/c2ccc(c(Br)c2)Oc2cc(cc(Br)c2O)CCNC(=O)/C(=N/O)Cc2ccc(c(Br)c2)Oc2cc(cc(Br)c2O)C/C1=N\O` [BASTADIN 7], for which the Activity is reported as 37.3%.

The record behind these values is ChEMBL document CHEMBL1144839, “Cytotoxic bastadin 24 from the Australian sponge Ianthella quadrangulata” (J Nat Prod, 2008).
